In PubChem BioAssay (NCI):
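All cell lines were grown in 96-well plates and treated with compound for 48 hours. TGI is the concentration that stops growth completely.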 Where a SMILES comes first, the peptide text is derived from it. [ ]: non-standard residue; d: D form. The star is where a group is joined. Hyp = O=C(O)[CH]1C[CH](O)CN1; Cbz = O=C(OCc1ccccc1)*

Tests used:
Test in all cases: growth of human tumour cells (NCI), 48 h
SN12C renal = test system: SN12C renal
SR leukemia = test system: SR leukemia
K-562 leukemia = test system: K-562 leukemia
NCI-H23 lung = test system: NCI-H23 lung
HT29 colon = test system: HT29 colon
RPMI-8226 leukemia = test system: RPMI-8226 leukemia
OVCAR-3 ovarian = test system: OVCAR-3 ovarian
MDA-MB-435 = test system: MDA-MB-435
TK-10 renal = test system: TK-10 renal
HCC-2998 colon = test system: HCC-2998 colon
UO-31 renal = test system: UO-31 renal
DU-145 prostate = test system: DU-145 prostate
A498 renal = test system: A498 renal
ACHN renal = test system: ACHN renal
LOX IMVI melanoma = test system: LOX IMVI melanoma
MALME-3M melanoma = test system: MALME-3M melanoma

SMILES | TGI (SN12C renal) | TGI (SR leukemia) | TGI (K-562 leukemia) | TGI (NCI-H23 lung) | TGI (HT29 colon) | TGI (RPMI-8226 leukemia) | TGI (OVCAR-3 ovarian) | TGI (MDA-MB-435) | TGI (TK-10 renal) | TGI (HCC-2998 colon) | TGI (UO-31 renal) | TGI (DU-145 prostate) | TGI (A498 renal) | TGI (ACHN renal) | TGI (LOX IMVI melanoma) | TGI (MALME-3M melanoma)
NC(=O)CNC(=O)C1CC(O)CN1C(=O)C1CCCN1C(=O)OCc1ccccc1 (stereo not drawn) (Cbz-Pro-[Hyp]-Gly-NH2; configuration not given here) | > 100 µM | > 100 µM | > 100 µM | > 100 µM | > 100 µM | > 100 µM | > 100 µM | > 100 µM | > 100 µM | > 100 µM | > 100 µM | > 100 µM | > 100 µM | > 100 µM | > 100 µM | > 100 µM
CN(C)c1cccc2c(S(=O)(=O)NCCCNCCN)cccc12 | > 100 µM | 39.1 µM | 43.1 µM | > 100 µM | > 100 µM | – | > 100 µM | 65.8 µM | – | 62.8 µM | > 100 µM | > 100 µM | 91 µM | > 100 µM | > 100 µM | > 100 µM
O=C(c1ccccc1)N1CCC(Nc2cccnc2)O1 (stereo not drawn) | > 100 µM | > 100 µM | > 100 µM | > 100 µM | > 100 µM | – | > 100 µM | > 100 µM | > 100 µM | > 100 µM | > 100 µM | > 100 µM | > 100 µM | > 100 µM | – | > 100 µM
CCOC(=O)/C=C(/C(=O)OCC)n1cc(C)c(=O)[nH]c1=O | 12.3 µM | 5.24 µM | 4.73 µM | 18.3 µM | 15.1 µM | 5.68 µM | 6.71 µM | 10.2 µM | 5.48 µM | 17.5 µM | 23.5 µM | 29.7 µM | 26.4 µM | 7.51 µM | 5.94 µM | 4.48 µM
COC(=O)C(Cc1ccccc1)NP(=O)(O)OCC1OC(n2ccc(N)nc2=O)C(O)C1O (stereo not drawn) | > 100 µM | > 100 µM | > 100 µM | > 100 µM | > 100 µM | > 100 µM | > 100 µM | > 100 µM | > 100 µM | > 100 µM | > 100 µM | > 100 µM | > 100 µM | > 100 µM | > 100 µM | > 100 µM
O=C(O)c1ccc2[nH]c(=O)oc2c1 | > 100 µM | > 100 µM | > 100 µM | > 100 µM | > 100 µM | > 100 µM | > 100 µM | > 100 µM | > 100 µM | – | – | > 100 µM | > 100 µM | > 100 µM | > 100 µM | > 100 µM
OCCCN=C1N=C(Cl)/C(=C\c2ccccc2)N1 | > 100 µM | > 100 µM | > 100 µM | > 100 µM | > 100 µM | > 100 µM | – | > 100 µM | > 100 µM | > 100 µM | > 100 µM | > 100 µM | > 100 µM | > 100 µM | > 100 µM | > 100 µM
CC(C)C(=O)/C=C/c1ccc(Cl)cc1Cl | 23 µM | > 100 µM | > 100 µM | 26.8 µM | 13.4 µM | > 100 µM | 16.1 µM | 10 µM | 27.2 µM | 30 µM | 23.5 µM | 27.2 µM | 31.8 µM | 29.7 µM | 13.5 µM | 28.2 µM
CNC(=O)OCC1=C(COC(=O)NC)CN(c2ccc(OC)cc2)C1 | > 100 µM | > 100 µM | > 100 µM | > 100 µM | > 100 µM | > 100 µM | > 100 µM | > 100 µM | > 100 µM | > 100 µM | > 100 µM | > 100 µM | 3.9 µM | > 100 µM | > 100 µM | > 100 µM
O=C1c2ccccc2C(=O)c2c1sc1nc3ccccc3n21 | 2.85 µM | > 100 µM | 5.09 µM | 3.74 µM | 13.8 µM | 5.26 µM | 9.34 µM | 4.37 µM | 12.7 µM | 3.79 µM | 3.89 µM | 3.13 µM | 23.3 µM | 6.27 µM | – | 1.6 µM
CN(C(=O)C12C3(C(=O)O)C4C5(C(=O)O)C3C1(C(=O)O)C5C42C(=O)O)C(C)(C)C (stereo not drawn) | > 100 µM | > 100 µM | > 100 µM | > 100 µM | > 100 µM | – | > 100 µM | > 100 µM | > 100 µM | > 100 µM | > 100 µM | > 100 µM | > 100 µM | > 100 µM | > 100 µM | –
CCOC(=O)/C=C(\C(=O)OCC)n1cc(C)c(=O)n(Cc2cn(COCCOC(C)=O)nn2)c1=O | 63.3 µM | 57.7 µM | > 100 µM | 29.8 µM | 20.9 µM | 18.9 µM | 27.6 µM | 28.2 µM | 15.9 µM | 43 µM | 26.9 µM | > 100 µM | – | 19.5 µM | 35.8 µM | –
N#CCc1nc(-c2cc3ccc(O)cc3oc2=O)cs1 | > 100 µM | > 100 µM | > 100 µM | – | > 100 µM | 81.2 µM | – | > 100 µM | > 100 µM | > 100 µM | > 100 µM | > 100 µM | – | > 100 µM | > 100 µM | > 100 µM
O=C(O)C(C(F)(F)F)C(F)(F)F (tested in a mixture with another compound) | > 100 µM | > 100 µM | > 100 µM | > 100 µM | > 100 µM | > 100 µM | > 100 µM | > 100 µM | > 100 µM | – | > 100 µM | > 100 µM | > 100 µM | > 100 µM | > 100 µM | > 100 µM
COC(OC)[C@@H]1OC[C@H](n2ccc(=O)[nH]c2=O)[C@H]1O | > 100 µM | > 100 µM | > 100 µM | > 100 µM | > 100 µM | > 100 µM | > 100 µM | > 100 µM | > 100 µM | > 100 µM | > 100 µM | > 100 µM | > 100 µM | > 100 µM | > 100 µM | –
